Here are results for 22 compounds from ChEMBL document CHEMBL3232846, “Synthesis and discovery of highly functionalized mono- and bis-spiro-pyrrolidines as potent cholinesterase enzyme inhibitors” (Bioorg Med Chem Lett, 2014).

A short description of assay [1]: Selectivity ratio of IC50 for electric eel AChE to IC50 for equine serum BChE.
For assay [2], the target named is Acetylcholinesterase (Electrophorus electricus, UniProt O42275). The experiment in a line: Inhibition of electric eel AChE using acetylthiocholine iodide as substrate preincubated for 15 mins by spectrophotometer analysis.
The nature of assay [3]: Selectivity ratio of IC50 for equine serum BChE to IC50 for electric eel AChE.
In assay [4] the target is Cholinesterase (Equus caballus, UniProt P81908). The experiment in a line: Inhibition of equine serum BChE using S-butyrylthiocholine chloride as substrate preincubated for 15 mins by spectrophotometer analysis.
Chain of Cholinesterase (P81908 whole entry): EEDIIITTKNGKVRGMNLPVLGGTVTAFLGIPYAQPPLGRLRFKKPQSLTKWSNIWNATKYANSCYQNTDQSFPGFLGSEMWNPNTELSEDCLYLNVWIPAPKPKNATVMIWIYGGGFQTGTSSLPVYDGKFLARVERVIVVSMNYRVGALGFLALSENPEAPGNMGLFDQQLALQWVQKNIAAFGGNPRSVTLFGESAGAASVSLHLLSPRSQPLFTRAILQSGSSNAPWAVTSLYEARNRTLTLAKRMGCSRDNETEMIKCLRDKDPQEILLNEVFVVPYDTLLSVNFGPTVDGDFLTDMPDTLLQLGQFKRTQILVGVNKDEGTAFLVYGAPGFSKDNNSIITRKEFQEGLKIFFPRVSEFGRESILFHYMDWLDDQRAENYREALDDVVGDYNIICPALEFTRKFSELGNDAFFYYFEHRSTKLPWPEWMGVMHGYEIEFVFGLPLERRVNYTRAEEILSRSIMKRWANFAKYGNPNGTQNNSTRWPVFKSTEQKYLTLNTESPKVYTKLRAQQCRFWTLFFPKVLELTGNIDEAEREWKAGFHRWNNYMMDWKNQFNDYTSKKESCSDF

Chain of Acetylcholinesterase (O42275 whole entry): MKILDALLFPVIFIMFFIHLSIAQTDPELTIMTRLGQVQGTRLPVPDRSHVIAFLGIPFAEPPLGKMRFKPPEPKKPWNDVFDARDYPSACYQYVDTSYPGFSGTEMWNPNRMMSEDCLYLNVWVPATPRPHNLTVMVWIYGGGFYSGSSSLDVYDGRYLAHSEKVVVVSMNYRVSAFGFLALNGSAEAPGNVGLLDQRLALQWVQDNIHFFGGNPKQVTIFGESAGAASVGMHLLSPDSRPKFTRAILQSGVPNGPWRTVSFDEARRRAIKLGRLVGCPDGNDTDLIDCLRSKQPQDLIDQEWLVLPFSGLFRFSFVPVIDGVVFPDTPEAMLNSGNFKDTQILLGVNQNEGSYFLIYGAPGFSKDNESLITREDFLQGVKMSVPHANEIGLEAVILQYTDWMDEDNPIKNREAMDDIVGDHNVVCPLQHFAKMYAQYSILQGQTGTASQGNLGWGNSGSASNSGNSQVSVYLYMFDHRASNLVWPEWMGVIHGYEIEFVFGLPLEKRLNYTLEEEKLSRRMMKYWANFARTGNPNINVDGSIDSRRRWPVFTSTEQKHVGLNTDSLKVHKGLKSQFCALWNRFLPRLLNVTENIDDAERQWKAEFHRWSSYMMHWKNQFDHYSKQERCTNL

For orientation: IC50 means the concentration that inhibits the measured activity by half. High values mean lower potency, low ones higher potency. For `C=CC(=O)N1C/C(=C\c2ccc(C)cc2)C(=O)C2(C1)C(c1ccc(C)cc1)C(c1ccccc1)NC21C(=O)Nc2ccccc21` (racemic), the Ratio IC50 worked out at 2.48 in assay [1] and 0.4 in assay [3]. Besides, the IC50 in assay [2] is 14.6 µM; in assay [4] it was 5.87 µM.

For `C=CC(=O)N1C/C(=C\c2ccc(Cl)cc2)C(=O)C2(C1)C(c1ccc(Cl)cc1)C(c1ccccc1)NC21C(=O)Nc2ccccc21` (racemic), the Ratio IC50 in assay [1] worked out at 0.53; in assay [3] it was 1.9. Moreover, the results for the IC50 in assay [2] and in assay [4] were 4.61 µM and 8.75 µM, respectively.

In the case of `O=C(C1CC(c2ccccc2)NC12C(=O)Nc1ccccc12)N1C/C(=C\c2ccc(Cl)cc2Cl)C(=O)C2(C1)C(c1ccc(Cl)cc1Cl)C(c1ccccc1)NC21C(=O)Nc2ccccc21` (racemic), the Ratio IC50 came to 0.33 in assay [1] and 3.06 in assay [3]. In addition, the concentration for half-maximal inhibition (IC50) in assay [2] is 8.61 µM; in assay [4], 26.3 µM.

Turning to `C=CC(=O)N1C/C(=C\c2ccccc2OC)C(=O)C2(C1)C(c1ccccc1OC)C(c1ccccc1)NC21C(=O)Nc2ccccc21` (racemic), the Ratio IC50 in assay [1] turned out to be 0.32; in assay [3], 3.14. The IC50 in assay [2] is 5.57 µM; in assay [4] it was 17.5 µM.

For `C=CC(=O)N1C/C(=C\c2ccccc2C)C(=O)C2(C1)C(c1ccccc1C)C(c1ccccc1)NC21C(=O)Nc2ccccc21` (racemic), the Ratio IC50 in assay [1] was 0.47; in assay [3] it was 2.13. In addition, the results for the IC50 in assay [2] and in assay [4] were 10.2 µM and 21.8 µM, respectively.

Turning to `C=CC(=O)N1C/C(=C\c2cccc([N+](=O)[O-])c2)C(=O)C2(C1)C(c1cccc([N+](=O)[O-])c1)C(c1ccccc1)NC21C(=O)Nc2ccccc21` (racemic), the Ratio IC50 is 1.43 in assay [1] and 0.7 in assay [3]. In addition, the concentration for half-maximal inhibition (IC50) in assay [2] was 15.1 µM; in assay [4] it was 10.6 µM.

As for `O=C(C1CC(c2ccccc2)NC12C(=O)Nc1ccccc12)N1C/C(=C\c2ccc(F)cc2)C(=O)C2(C1)C(c1ccc(F)cc1)C(c1ccccc1)NC21C(=O)Nc2ccccc21` (racemic), the Ratio IC50 was 1.51 in assay [1] and 0.66 in assay [3]. Also, the values for the IC50 in assay [2] and in assay [4] were 21.9 µM and 14.4 µM, respectively.

Regarding `C=CC(=O)N1C/C(=C\c2ccccc2)C(=O)C2(C1)C(c1ccccc1)C(c1ccccc1)NC21C(=O)Nc2ccccc21` (racemic), the Ratio IC50 turned out to be 0.37 in assay [1] and 2.69 in assay [3]. In addition, the half-maximal inhibitory concentration (IC50) in assay [2] was 4.57 µM; in assay [4], 12.3 µM.

With `C=CC(=O)N1C/C(=C\c2ccccc2F)C(=O)C2(C1)C(c1ccccc1F)C(c1ccccc1)NC21C(=O)Nc2ccccc21` (racemic), the Ratio IC50 in assay [1] was found to be 0.19; in assay [3], 5.18. Moreover, the IC50 in assay [2] was 2.27 µM; in assay [4], 11.8 µM.

For `O=C(C1CC(c2ccccc2)NC12C(=O)Nc1ccccc12)N1C/C(=C\c2ccccc2Cl)C(=O)C2(C1)C(c1ccccc1Cl)C(c1ccccc1)NC21C(=O)Nc2ccccc21` (racemic), the Ratio IC50 in assay [1] turned out to be 0.64; in assay [3] it was 1.56. Besides, the results for the half-inhibitory concentration (IC50) in assay [2] and in assay [4] were 11.3 µM and 17.6 µM, respectively.

For the compound `O=C(C1CC(c2ccccc2)NC12C(=O)Nc1ccccc12)N1C/C(=C\c2ccccc2)C(=O)C2(C1)C(c1ccccc1)C(c1ccccc1)NC21C(=O)Nc2ccccc21` (racemic), the Ratio IC50 in assay [1] worked out at 0.79; in assay [3], 1.27. Further, the IC50 came out at 20.8 µM in assay [2] and 26.3 µM in assay [4].

As for `O=C(C1CC(c2ccccc2)NC12C(=O)Nc1ccccc12)N1C/C(=C\c2cccc3ccccc23)C(=O)C2(C1)C(c1cccc3ccccc13)C(c1ccccc1)NC21C(=O)Nc2ccccc21` (racemic), the Ratio IC50 stood at 0.48 in assay [1] and 2.08 in assay [3]. For the same compound, the IC50 in assay [2] was 9.24 µM; in assay [4] it was 19.2 µM.

`C=CC(=O)N1C/C(=C\c2ccccc2Cl)C(=O)C2(C1)C(c1ccccc1Cl)C(c1ccccc1)NC21C(=O)Nc2ccccc21` (racemic): the Ratio IC50 in assay [1] turned out to be 0.08; in assay [3], 13.2. For the same compound, the IC50 in assay [2] came to 1.68 µM; in assay [4], 22.2 µM.

As for `Cc1ccccc1/C=C1\CN(C(=O)C2CC(c3ccccc3)NC23C(=O)Nc2ccccc23)CC2(C1=O)C(c1ccccc1C)C(c1ccccc1)NC21C(=O)Nc2ccccc21` (racemic), the Ratio IC50 in assay [1] amounted to 1.05; in assay [3], 0.95. The IC50 was found to be 30.5 µM in assay [2] and 29.1 µM in assay [4].

Take `C=CC(=O)N1C/C(=C\c2cccc3ccccc23)C(=O)C2(C1)C(c1cccc3ccccc13)C(c1ccccc1)NC21C(=O)Nc2ccccc21` (racemic): the Ratio IC50 in assay [1] is 0.15; in assay [3], 6.65. For the same compound, the results for the IC50 in assay [2] and in assay [4] were 2.07 µM and 13.8 µM, respectively.

In the case of `COc1ccccc1/C=C1\CN(C(=O)C2CC(c3ccccc3)NC23C(=O)Nc2ccccc23)CC2(C1=O)C(c1ccccc1OC)C(c1ccccc1)NC21C(=O)Nc2ccccc21` (racemic), the figures for the Ratio IC50 in assay [1] and in assay [3] were 0.28 and 3.51, respectively. Moreover, the IC50 in assay [2] is 9.15 µM; in assay [4] it was 32.1 µM.

In the case of `C=CC(=O)N1C/C(=C\c2ccc(F)cc2)C(=O)C2(C1)C(c1ccc(F)cc1)C(c1ccccc1)NC21C(=O)Nc2ccccc21` (racemic), the Ratio IC50 in assay [1] worked out at 2.17; in assay [3], 0.46. Further, the IC50 worked out at 5.98 µM in assay [2] and 2.75 µM in assay [4].

`O=C(C1CC(c2ccccc2)NC12C(=O)Nc1ccccc12)N1C/C(=C\c2ccccc2F)C(=O)C2(C1)C(c1ccccc1F)C(c1ccccc1)NC21C(=O)Nc2ccccc21` (racemic): the Ratio IC50 in assay [1] came out at 0.21; in assay [3], 4.81. In addition, the IC50 is 7.45 µM in assay [2] and 35.9 µM in assay [4].

With `O=C(C1CC(c2ccccc2)NC12C(=O)Nc1ccccc12)N1C/C(=C\c2ccc(Cl)cc2)C(=O)C2(C1)C(c1ccc(Cl)cc1)C(c1ccccc1)NC21C(=O)Nc2ccccc21` (racemic), the Ratio IC50 in assay [1] was 0.44; in assay [3], 2.25. For the same compound, the results for the IC50 in assay [2] and in assay [4] were 12.3 µM and 27.8 µM, respectively.

As to `O=C(C1CC(c2ccccc2)NC12C(=O)Nc1ccccc12)N1C/C(=C\c2cccc([N+](=O)[O-])c2)C(=O)C2(C1)C(c1cccc([N+](=O)[O-])c1)C(c1ccccc1)NC21C(=O)Nc2ccccc21` (racemic), the values for the Ratio IC50 in assay [1] and in assay [3] were 0.95 and 1.05, respectively. Besides, the IC50 came to 16.8 µM in assay [2] and 17.6 µM in assay [4].

On to `Cc1ccc(/C=C2\CN(C(=O)C3CC(c4ccccc4)NC34C(=O)Nc3ccccc34)CC3(C2=O)C(c2ccc(C)cc2)C(c2ccccc2)NC32C(=O)Nc3ccccc32)cc1` (racemic), for which the Ratio IC50 in assay [1] worked out at 1.02; in assay [3] it was 0.98. Also, the half-maximal inhibitory concentration (IC50) was 20.2 µM in assay [2] and 19.8 µM in assay [4].

As to `C=CC(=O)N1C/C(=C\c2ccc(Cl)cc2Cl)C(=O)C2(C1)C(c1ccc(Cl)cc1Cl)C(c1ccccc1)NC21C(=O)Nc2ccccc21` (racemic), the Ratio IC50 in assay [1] came to 0.23; in assay [3], 4.4. Besides, the IC50 in assay [2] worked out at 6.16 µM; in assay [4] it was 27.1 µM.
